One test has as its target PRMT5/MEP50 (Homo sapiens, UniProt O14744). As to the kind of experiment: MTase-Glo methyl transferase assay, Method B (FL-Histone H2A, 1 µM MTA, 1 h pre-incubation). It is filed as biochemical. Also on record: purchased Reaction Biology Corp RD-11-292. The settings on record: read-out: PRMT5 MTase Glo Ki (nM, Meth. B). Summed up:
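PRMT5/MEP50 (4 nM) was pre-incubated 1 h with compound, 5 µM SAM and 1 µM MTA, then started with 2.5 µM FL-Histone H2A in Tris pH 8.0 buffer. After 20 h at room temperature, SAH was detected by MTase-Glo luminescence, and IC50/KI were fitted from dose-response curves.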

The test system of a further test is HCT116 WT cells. As to the kind of experiment: HCT116 proliferation assay, WT cells (CellTiter-Glo, 6 days). It is filed as cell-based. The settings on record: read-out: Prolif_HCT116-WT IC50. Summed up:
(§1)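 Readout is CellTiter-Glo luminescence after 6 days of drug exposure at 37 °C. Compounds tested as 8–9 point, 3-fold dilution series starting at 1 or 10 µM, versus DMSO only, on cells in RPMI 1640 with 10% FBS.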
In general terms: ATP-based viability assays read luminescence as a measure of living cells.

A further test concerns HCT116 MTAP null cells. As to the kind of experiment: HCT116 proliferation assay, MTAP null cells (CellTiter-Glo, 6 days). Format: cell-based. The settings on record: 144 h, read-out: Protif_ HCT116-MTAP null IC50. Summed up: as §1

From patent publication US20230159510A1, “NOVEL PRMT5 INHIBITORS” (AMGEN INC., priority 2020, published 2023) come the findings set out here.

For orientation: Ki means the equilibrium dissociation constant of an inhibitor or competing ligand from its target. As a reminder, the IC50 is the midpoint of a concentration-inhibition curve.

Like-named read-outs stand apart in the source and are kept apart here.

PRMT5/MEP50, sequence (O14744 2-637 limits assumed): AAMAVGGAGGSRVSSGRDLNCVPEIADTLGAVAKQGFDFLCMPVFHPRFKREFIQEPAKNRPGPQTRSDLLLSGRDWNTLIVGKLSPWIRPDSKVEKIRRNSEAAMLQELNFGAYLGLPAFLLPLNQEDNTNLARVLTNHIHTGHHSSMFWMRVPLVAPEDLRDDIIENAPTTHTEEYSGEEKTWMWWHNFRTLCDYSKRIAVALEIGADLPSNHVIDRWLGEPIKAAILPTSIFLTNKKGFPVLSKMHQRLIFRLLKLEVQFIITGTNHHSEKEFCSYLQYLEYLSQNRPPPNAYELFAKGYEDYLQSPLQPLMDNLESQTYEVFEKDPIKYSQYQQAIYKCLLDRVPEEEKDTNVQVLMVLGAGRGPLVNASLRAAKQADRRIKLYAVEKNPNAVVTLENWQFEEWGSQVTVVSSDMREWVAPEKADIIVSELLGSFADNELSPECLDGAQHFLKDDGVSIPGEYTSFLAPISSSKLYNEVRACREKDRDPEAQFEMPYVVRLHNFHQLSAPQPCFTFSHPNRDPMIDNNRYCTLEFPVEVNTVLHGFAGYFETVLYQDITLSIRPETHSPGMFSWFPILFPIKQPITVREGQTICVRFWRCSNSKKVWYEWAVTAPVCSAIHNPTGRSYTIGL
PRMT5/MEP50, sequence (Q9BQA1 2-342 partner limits assumed): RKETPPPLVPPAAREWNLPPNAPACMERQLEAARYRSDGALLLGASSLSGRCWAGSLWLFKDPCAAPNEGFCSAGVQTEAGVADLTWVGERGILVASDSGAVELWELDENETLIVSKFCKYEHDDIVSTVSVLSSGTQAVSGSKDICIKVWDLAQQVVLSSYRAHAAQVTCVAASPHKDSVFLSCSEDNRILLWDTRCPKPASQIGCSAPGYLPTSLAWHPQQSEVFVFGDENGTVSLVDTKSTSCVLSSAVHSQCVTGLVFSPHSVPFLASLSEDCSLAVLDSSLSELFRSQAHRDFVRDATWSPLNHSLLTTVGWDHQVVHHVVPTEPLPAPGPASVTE

For the molecule `Cc1cc2cc(C(=O)N(Cc3ccc(C(F)(F)F)cn3)CC(C)C(F)(F)F)ccc2nc1N` (stereo not drawn) [Example 591, 2-amino-3-methyl-N-(3,3,3-trifluoro-2-methylpropyl)-N-((5-(trifluoromethyl)pyridin-2-yl)methyl)quinoline-6-carboxamide], the inhibition constant (Ki) on PRMT5/MEP50 worked out at 16.5 nM. Further, the IC50 in the test with HCT116 WT cells (Homo sapiens, HCT-116, 144 h) is greater than 1000 nM; in the test on HCT116 MTAP null cells, 456 nM.

Turning to `CO[C@@H]1COCC[C@H]1N(Cc1ccc(C(F)(F)F)cn1)C(=O)c1ccc2nc(N)c(C)cc2c1` [Example 704, 2-amino-N-[(3 S,4R)-3-methoxytetrahydropyran-4-yl]-3-methyl-N-[[5-(trifluoromethyl)-2-pyridyl]methyl] quinoline-6-carboxamide], the Ki at PRMT5/MEP50 came to 25.1 nM. Also, the IC50 in the test with HCT116 WT cells is greater than 1000 nM; with HCT116 MTAP null cells (HCT116-MTAP null), 80 nM.

Regarding `Cc1cc2cc(C(=O)N(Cc3ccc(C(F)(F)F)cn3)Cc3ccc4cc[nH]c4n3)ccc2nc1N` [Example 615, N-((1H-pyrrolo [2,3-b]pyridin-6-yl)methyl)-2-amino-3-methyl-N-((5-(trifluoromethyl)pyridin-2-yl)methyl)quinoline-6-carboxamide], the Ki on PRMT5/MEP50 was found to be 1.62 nM. In addition, the 50% inhibitory concentration (IC50) in the test with HCT116 WT cells (Homo sapiens, HCT-116, 144 h) amounted to 3500 nM; in the test on HCT116 MTAP null cells (HCT116-MTAP null) it was 276 nM.

As to `Cc1ccc2c(c1)C(N(Cc1ccc(C(F)(F)F)cn1)C(=O)c1ccc3nc(N)c(C)cc3c1)CC2` (stereo not drawn) [Example 624, 2-amino-3-methyl-N-(6-methyl-2,3-dihydro-1H-inden-1-yl)-N-((5-(trifluoromethyl)pyridin-2-yl)methyl)quinoline-6-carboxamide], the Ki on PRMT5/MEP50 stood at 5.19 nM. The IC50 in the test on HCT116 WT cells (Homo sapiens, HCT-116, 144 h) is greater than 1000 nM; in the test with HCT116 MTAP null cells (HCT116-MTAP null), 187 nM.

Regarding `Cc1cc2cc(C(=O)N(Cc3ccc(C(F)(F)F)cn3)Cc3ccnc4[nH]ccc34)ncc2nc1N` [Example 684, 2-amino-3-methyl-N-(1H-pyrrolo[2,3-b]pyridin-4-ylmethyl)-N-[[5-(trifluoromethyl)-2-pyridyl]methyl]-1,7-naphthyridine-6-carboxamide], the Ki at PRMT5/MEP50 stood at 2.29 nM. The IC50 in the test on HCT116 WT cells (Homo sapiens, HCT-116, 144 h) was greater than 1000 nM; in the test with HCT116 MTAP null cells (HCT116-MTAP null) it was 114 nM.

In the case of `Cc1cc2cc(C(=O)N(Cc3ccc(C(F)(F)F)cn3)Cc3c(C)c4ccccc4n3C)ccc2nc1N` [Example 578, 2-amino-N-((1,3-dimethyl-1H-indol-2-yl)methyl)-3-methyl-N-((5-(trifluoromethyl)pyridin-2-yl)methyl)quinoline-6-carboxamide], the Ki at PRMT5/MEP50 was 15.4 nM. Besides, the IC50 in the test with HCT116 WT cells (Homo sapiens, HCT-116, 144 h) was found to be 5090 nM; in the test with HCT116 MTAP null cells (HCT116-MTAP null), 859 nM.

As to `Cc1cc2cc(C(=O)N(Cc3ccc(CO)c(F)c3)Cc3ccc(C(F)(F)F)cn3)ccc2nc1N` [Example 566, 2-amino-N-[[3-fluoro-4-(hydroxymethyl)phenyl]methyl]-3-methyl-N-[[5-(trifluoromethyl)-2-pyridyl]methyl] quinoline-6-carboxamide], the Ki on PRMT5/MEP50 was 4.58 nM. The IC50 is greater than 10000 nM in the test on HCT116 WT cells (Homo sapiens, HCT-116, 144 h) and 277 nM in the test on HCT116 MTAP null cells (HCT116-MTAP null).

As for `Cc1cc2cc(C(=O)N(Cc3ccc4[nH]c(N)nc4c3)Cc3ccc(C(F)(F)F)cn3)ccc2nc1N` [Example 616, 2-amino-N-((2-amino-1H-benzo [d]imidazol-5-yl)methyl)-3-methyl-N-((5-(trifluoromethyl)pyridin-2-yl)methyl)quinoline-6-carboxamide], the Ki at PRMT5/MEP50 was 3.29 nM. The IC50 in the test with HCT116 WT cells (Homo sapiens, HCT-116, 144 h) was greater than 1000 nM; in the test on HCT116 MTAP null cells (HCT116-MTAP null) it was 320 nM.

Regarding `Cc1cc2cc(C(=O)N(Cc3ccc(C(F)(F)F)cn3)CC(C)C#N)ccc2nc1N` (stereo not drawn) [Example 694, 2-amino-N-(2-cyanopropyl)-3-methyl-N-[[5-(trifluoromethyl)-2-pyridyl]methyl] quinoline-6-carboxamide], the Ki at PRMT5/MEP50 amounted to 5.62 nM. Further, the IC50 is 8600 nM in the test with HCT116 WT cells (Homo sapiens, HCT-116, 144 h) and 224 nM in the test with HCT116 MTAP null cells (HCT116-MTAP null).

For `Cc1cc2cc(C(=O)N(Cc3ccc(C(F)(F)F)cn3)C3CCCc4nn(C)cc43)ccc2nc1N` (stereo not drawn) [Example 605, 2-amino-3-methyl-N-(2-methyl-4,5,6,7-tetrahydro-2H-indazol-4-yl)-N-((5-(trifluoromethyl)pyridin-2-yl)methyl)quinoline-6-carboxamide], on PRMT5/MEP50, the Ki is 6.2 nM. Moreover, the IC50 with HCT116 WT cells (Homo sapiens, HCT-116, 144 h) was greater than 1300 nM; in the test on HCT116 MTAP null cells (HCT116-MTAP null), 145 nM.

As for `Cc1cc2cc(C(=O)N(Cc3ccc4[nH]ccc4c3)Cc3ccc(C(F)(F)F)cn3)ccc2nc1N` [Example 623, N-((1H-indol-5-yl)methyl)-2-amino-3-methyl-N-((5-(trifluoromethyl)pyridin-2-yl)methyl)quinoline-6-carboxamide], on PRMT5/MEP50, the Ki turned out to be 3.14 nM. Also, the IC50 came to 900 nM in the test with HCT116 WT cells (Homo sapiens, HCT-116, 144 h) and 56 nM in the test on HCT116 MTAP null cells (HCT116-MTAP null).

With `Cc1cc2cc(C(=O)N(Cc3ccc4[nH]c(=O)[nH]c4c3)Cc3ccc(C(F)(F)F)cn3)ccc2nc1N` [Example 570, 2-amino-3-methyl-N-((2-oxo-2,3-dihydro-1H-benzo[d]imidazol-5-yl)methyl)-N-((5-(trifluoromethyl)pyridin-2-yl)methyl)quinoline-6-carboxamide], the Ki at PRMT5/MEP50 came to 2.39 nM. Moreover, the IC50 is greater than 10000 nM in the test with HCT116 WT cells (Homo sapiens, HCT-116, 144 h) and 343 nM in the test on HCT116 MTAP null cells (HCT116-MTAP null).

For `Cc1cc2cc(C(=O)N(Cc3ccc(C(F)(F)F)cn3)Cc3cc4c([nH]c3=O)CCC4)ccc2nc1N` [Example 599, 2-amino-3-methyl-N-[(2-oxo-1,5,6,7-tetrahydrocyclopenta[b]pyridin-3-yl)methyl]-N-[[5-(trifluoromethyl)-2-pyridyl]methyl] quinoline-6-carboxamide], at PRMT5/MEP50, the Ki was 3.12 nM. The IC50 in the test with HCT116 WT cells (Homo sapiens, HCT-116, 144 h) is greater than 1000 nM; in the test on HCT116 MTAP null cells (HCT116-MTAP null), 280 nM.

For the molecule `Cc1cc2cc(C(=O)N(Cc3ccn4ccnc4c3)Cc3ccc(C(F)(F)F)cn3)ccc2nc1N` [Example 621, 2-amino-N-(imidazo[1,2-a]pyridin-7-ylmethyl)-3-methyl-N-((5-(trifluoromethyl)pyridin-2-yl)methyl)quinoline-6-carboxamide], the Ki on PRMT5/MEP50 turned out to be 3.97 nM. Besides, the IC50 in the test on HCT116 WT cells (Homo sapiens, HCT-116, 144 h) was greater than 1000 nM; in the test on HCT116 MTAP null cells (HCT116-MTAP null), 133 nM.

With `Cc1cc2cc(C(=O)N(Cc3ccc(C(F)(F)F)cn3)CC3CCn4ccnc4C3)ccc2nc1N` (stereo not drawn) [Example 614, 2-amino-3-methyl-N-((5,6,7,8-tetrahydroimidazo [1,2-a]pyridin-7-yl)methyl)-N-((5-(trifluoromethyl)pyridin-2-yl)methyl)quinoline-6-carboxamide], at PRMT5/MEP50, the Ki turned out to be 9.42 nM. Besides, the IC50 with HCT116 WT cells (Homo sapiens, HCT-116, 144 h) was greater than 1000 nM; in the test with HCT116 MTAP null cells (HCT116-MTAP null), 950 nM.

Take `Cc1cc2cc(C(=O)N(Cc3ccc(C(F)(F)F)cn3)C3CC3C3CC3)ccc2nc1N` (stereo not drawn) [Example 705, 2-amino-N-(2-cyclopropylcyclopropyl)-3-methyl-N-[[5-(trifluoromethyl)-2-pyridyl]methyl] quinoline-6-carboxamide]: the Ki on PRMT5/MEP50 worked out at 9.63 nM. Besides, the half-inhibitory concentration (IC50) in the test with HCT116 WT cells (Homo sapiens, HCT-116, 144 h) is greater than 1000 nM; with HCT116 MTAP null cells (HCT116-MTAP null), 760 nM.

Turning to `Cc1cc2cc(C(=O)N(Cc3cncc(F)c3)Cc3ccccc3F)ccc2nc1N` [Example 590, 2-amino-N-(2-fluorobenzyl)-N-((5-fluoropyridin-3-yl)methyl)-3-methylquinoline-6-carboxamide], the Ki at PRMT5/MEP50 turned out to be 14.9 nM. Moreover, the IC50 is 6800 nM in the test with HCT116 WT cells (Homo sapiens, HCT-116, 144 h) and 921 nM in the test on HCT116 MTAP null cells (HCT116-MTAP null).

`Cc1cc2cc(C(=O)N(Cc3ccc(C(F)(F)F)cn3)CC3CCc4[nH]cnc4C3)ccc2nc1N` (stereo not drawn) [Example 617, 2-amino-3-methyl-N-((4,5,6,7-tetrahydro-1H-benzo[d]imidazol-5-yl)methyl)-N-((5-(trifluoromethyl)pyridin-2-yl)methyl)quinoline-6-carboxamide]: the Ki at PRMT5/MEP50 was found to be 1.72 nM. Further, the IC50 in the test with HCT116 WT cells (Homo sapiens, HCT-116, 144 h) is greater than 1000 nM; in the test with HCT116 MTAP null cells (HCT116-MTAP null), 286 nM.

As to `Cc1cc(N)nc2ccc(C(=O)N(Cc3ccc(C(F)(F)F)cn3)Cc3ccn(C)n3)cc12` [Example 709, 2-amino-4-methyl-N-[(1-methylpyrazol-3-yl)methyl]-N-[[5-(trifluoromethyl)-2-pyridyl]methyl] quinoline-6-carboxamide], the Ki at PRMT5/MEP50 came to 2.97 nM. The IC50 in the test on HCT116 WT cells (Homo sapiens, HCT-116, 144 h) was found to be 1430 nM; with HCT116 MTAP null cells (HCT116-MTAP null), 334 nM.

`Cc1cc2cc(C(=O)N(Cc3cccc(O)c3)Cc3ccc(C(F)(F)F)cn3)ccc2nc1N` [Example 600, 2-amino-N-[(3-hydroxyphenyl)methyl]-3-methyl-N-[[5-(trifluoromethyl)-2-pyridyl]methyl] quinoline-6-carboxamide]: the inhibition constant (Ki) on PRMT5/MEP50 came to 1.83 nM. The IC50 is greater than 1000 nM in the test with HCT116 WT cells (Homo sapiens, HCT-116, 144 h) and 44 nM in the test on HCT116 MTAP null cells (HCT116-MTAP null).

For `Cc1cc2cc(C(=O)N(CCc3ncon3)Cc3ccc(C(F)(F)F)cn3)ccc2nc1N` [Example 576, N-(2-(1,2,4-oxadiazol-3-yl)ethyl)-2-amino-3-methyl-N-((5-(trifluoromethyl)pyridin-2-yl)methyl)quinoline-6-carboxamide], the Ki at PRMT5/MEP50 worked out at 5.89 nM. In addition, the IC50 is greater than 10000 nM in the test on HCT116 WT cells (Homo sapiens, HCT-116, 144 h) and 749 nM in the test with HCT116 MTAP null cells (HCT116-MTAP null).

As for `Cc1cc2cc(C(=O)N(Cc3ccc(C(F)(F)F)cn3)C3CCCc4[nH]ccc43)ccc2nc1N` (stereo not drawn) [Example 603, 2-amino-3-methyl-N-(4,5,6,7-tetrahydro-1H-indol-4-yl)-N-((5-(trifluoromethyl)pyridin-2-yl)methyl)quinoline-6-carboxamide], the Ki at PRMT5/MEP50 amounted to 23.7 nM. Further, the IC50 in the test on HCT116 WT cells (Homo sapiens, HCT-116, 144 h) is greater than 1500 nM; with HCT116 MTAP null cells (HCT116-MTAP null), 317 nM.

With `Cc1cc(N)nc2ccc(C(=O)N(Cc3ccc(C(F)(F)F)cn3)Cc3ncn(C)n3)cc12` [Example 710, 2-amino-4-methyl-N-[(1-methyl-1,2,4-triazol-3-yl)methyl]-N-[[5-(trifluoromethyl)-2-pyridyl]methyl] quinoline-6-carboxamide], the Ki at PRMT5/MEP50 was 4.13 nM. For the same molecule, the IC50 in the test with HCT116 WT cells (Homo sapiens, HCT-116, 144 h) stood at 1140 nM; with HCT116 MTAP null cells (HCT116-MTAP null), 177 nM.
